From US12352767B2, “Method of treating cognitive decline associated with neurological diseases based on a decrease in FLT4 expression or activity” (University of Virginia Patent Foundation, priority 2018, dated 2025) come the findings set out here.

The subject of experiment [1] is 5×FAD mice. Briefly: Amyloid pathology in meninges and hippocampus of 5xFAD mice (Aβ immunostaining). Format: in vivo. Here is the method: Male or female wild-type mice (C57BL/6J background) were either bred in-house, purchased from the Jackson Laboratory (Bar Harbor, Maine, USA) or provided by the National Institutes of Health/National Institute on Aging (Bethesda, MD, USA). All mice were maintained in the animal facility for habituation for at least 1 week prior to the start of the manipulation/experimentation. C57BL/6J wild-type mice were tested at 2-3, 12-14 and 20-24 months of age. Male hemizygous B6.Cg-Tg(PDGFB-APPSwInd)20Lms/2Mmjax (J20, JAX stock #006293) and B6.Cg-Tg(APPSwFILon,PSEN1*M146L*L286V)6799Vas/Mmjax (5×FAD, JAX stock #008730) were purchased from the Jackson Laboratory and bred in-house on a C57BL/6J background. […] 5×FAD hemizygous mice overexpress the transgene constructs under neural-specific elements of the mouse thymocyte differentiation antigen 1 promoter and present accelerated accumulation of Aβ42 and deposition of amyloid and gliosis in the brain starting at 2 months of age, with dramatic amyloid plaque load without major behavioral deficits at 5 months^45. In-house bred male transgene carriers and non-carrier (WT) littermates were used at different ages that are indicated throughout the manuscript. Prox1^LacZ mice (designated Prox1^+/− mice in this manuscript) on a NMRI background (kindly provided by Dr. Guillermo Oliver, Northwestern University, Chicago, IL) were also bred in-house and used in this study as a constitutive model for dysfunctional lymphatic vessels^46. Mice of all strains were housed in an environment with controlled temperature and humidity, on 12 hours light/dark cycles (lights on at 7:00), and fed with regular rodent's chow and sterilized tap water ad libitum. All experiments were approved by the Institutional Animal Care and Use Committee of the University of Virginia.

Experiment [2] deals with brain parenchyma. Kind of experiment: Efflux of fluorescent tracers injected into the brain parenchyma. It counts as in vivo, mice. The note with it: 7 days after Visudyne/photoconversion, vs both control groups. Here is the method: An incision was made in the skin to expose the skull and a hole was drilled at +1.5 mm in the anterior-posterior axis and −1.5 mm in the medial-lateral axis relative to bregma. Then, using a Hamilton syringe (coupled to a 33-gauge needle) placed at +2.5 mm in the dorsal-ventral axis (relative to bregma), 1 μL of either Alexa Fluor® 647 conjugated OVA (at 0.5 mg/mL), HiLyte™ Fluor 647 conjugated Aβ42 (at 0.05 μg/mL, AnaSpec, Inc.) or BODIPY™ FL conjugated low density lipoprotein (LDL) from human plasma (at 0.1 mg/mL, Thermo Fisher Scientific) in artificial CSF were injected at a rate of 0.2 μL/min into the brain parenchyma. […] After injecting, the syringe was left in place for additional 5 min to prevent back-flow.

[3] abbreviates: Visudyne/photoconversion for 1.5 months.

Turning to verteporfin [Visudyne], the “amyloid deposition in the meninges” value in experiment [1] (Visudyne/photoconversion every 3 weeks for 1.5 months from ~2 months of age) was “marked deposition of amyloid in the meninges”. For the same substance, in experiment [1] (setting [3]), the “brain amyloid burden in the hippocampi” value was “aggravation of brain amyloid burden” and the “macrophage recruitment to Aβ aggregates in meninges” value is listed as “macrophage recruitment to large Aβ aggregates”. For the same substance, in experiment [2] (one hour after stereotaxic injection), the “levels of remaining tracers in brain parenchyma (Aβ42-HiLyte647, OVA-A647, LDL-BODIPY FL)” value is recorded as “higher levels of remnants”. Besides, in experiment [2], the “Aβ42-HiLyte647 area fraction in the injected brain hemisphere” value was “significantly higher level”, the “LDL-BODIPY FL area fraction in the injected brain hemisphere” value is reported as “significantly higher level” and the “OVA-A647 area fraction in the injected brain hemisphere” value was “significantly higher level”.
